In general, IC50 refers to the concentration at which inhibition is half-maximal. Lower therefore signals higher potency.

Experimental findings from patent US8785459B2, “Quinazoline compounds as kinase inhibitors” (Development Center for Biotechnology, priority 2011, dated 2014) are described below.

One series deals with C-Raf (Homo sapiens (Human), UniProt P04049). Briefly: Raf kinase assay (C-Raf), [33P] incorporation into MEK1(K97R). The class given is biochemical. A digest of the protocol:
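[33P] transfer to kinase-dead MEK1(K97R) substrate (500 ng) measured after 30 min at 30 °C in Tris pH 7.5 buffer containing 8 μM ATP. Enzyme inputs were 2 ng for C-Raf and 5 ng for B-Raf and B-Raf V600E. Duplicate 3-fold serial dilutions gave the half-maximal inhibitory concentration.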

Series [1] can be described thus: Body weight of A375 tumor-bearing NOD/SCID mice under treatment. The class given is in vivo. The following applies: A375 xenograft, 50 mg/kg i.p. qd x 28. How it is done:
(§1) In Vivo Anti-Cancer Activities
(§2) A375 (1×10^6 cell/mouse) tumor cells were subcutaneously injected into the right flank of 5 week old male NOD/SCID mice (BioLASCO, Taiwan). Tumor volume was measured with a digital caliper once tumor was palpable (within 10 to 15 days after implantation). Compound treatment was started after 1-3 weeks when the tumors had reached an average volume of ˜50 to 100 mm^3. Mice were divided into 5 groups as listed in Table 6 below and were given intraperitoneal injections with the test compound at 50 mg/kg, or vehicle control (DMSO:Cremophor:PBS (pH 7.4)=[…]) one time every day. The test compound, 58, was formulated in a solution of 5% DMSO, 10% Cremophor, and 85% PBS. The positive control, PLX4032, was dissolved in 100% PBS. Body weights of the mice were measured every two to three days and the tumor sizes in different groups of mice were measured by digital caliper every two to three days.

The subject of another series is A375 tumor cells. Nature of the series: In vivo anti-cancer activity, subcutaneous A375 tumor in NOD/SCID mice. The following applies: A375 xenograft, 50 mg/kg i.p. qd x 28. How it is done:
as §1, §2

C-Raf, sequence (P04049 whole entry): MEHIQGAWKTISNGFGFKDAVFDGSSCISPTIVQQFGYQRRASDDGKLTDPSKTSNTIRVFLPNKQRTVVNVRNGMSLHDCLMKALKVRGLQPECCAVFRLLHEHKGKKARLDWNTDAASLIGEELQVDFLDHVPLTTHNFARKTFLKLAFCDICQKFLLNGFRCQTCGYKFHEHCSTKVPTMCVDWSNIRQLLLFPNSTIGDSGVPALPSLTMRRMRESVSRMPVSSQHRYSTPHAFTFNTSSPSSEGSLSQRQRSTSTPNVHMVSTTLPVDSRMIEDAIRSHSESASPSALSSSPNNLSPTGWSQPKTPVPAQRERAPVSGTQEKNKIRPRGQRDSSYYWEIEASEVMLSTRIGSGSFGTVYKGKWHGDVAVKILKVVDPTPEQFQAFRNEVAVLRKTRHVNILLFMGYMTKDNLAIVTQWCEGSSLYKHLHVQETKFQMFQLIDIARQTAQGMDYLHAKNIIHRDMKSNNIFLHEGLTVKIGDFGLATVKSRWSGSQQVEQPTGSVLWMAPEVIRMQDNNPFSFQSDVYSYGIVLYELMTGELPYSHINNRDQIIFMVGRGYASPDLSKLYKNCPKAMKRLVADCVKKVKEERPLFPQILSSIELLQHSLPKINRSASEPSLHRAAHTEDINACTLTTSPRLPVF

In turn, `COc1cc(-c2ccc3ncnc(Nc4cccc(O)c4)c3c2)ccc1O` [Compound 8, 4-(4-(3-hydroxyphenylamino)quinazolin-6-yl)-2-methoxyphenol] showed an IC50 on C-Raf of 255 nM.
For the molecule `COc1cc(-c2ccc3ncnc(Nc4cc(O)ccc4F)c3c2)ccc1O` [Compound 58, 4-(4-(2-fluoro-5-hydroxyphenylamino)quinazolin-6-yl)-2-methoxyphenol], the weight loss result in series [1] is “without inducing significant weight loss”. In the series on A375 tumor cells, the “tumor growth in vivo” value is “inhibited tumor growth in vivo”. Also, on C-Raf, the IC50 amounted to 170 nM.
